Test results taken from patent US20250228873A1, “C25 R AND S ISOMERS OF AMINOSTEROLS AND METHODS OF MAKING AND USING THE SAME” (Enterin, Inc., priority 2022, published 2025).
“Also recorded” adds a separate entry of the source.

Key:
[1] = Weight gain in growing male mice (about 25 grams); assay type: in vivo; settings: similar dosing regimen, FIG. 2
Experimental: In a second experiment, growing male mice, about 25 grams, were administered either compound following a similar dosing regimen. As in the previous experiment, both compounds affected weight gain.

[2] = Weight loss in ad lib fed mice (about 50 grams), i.p. every other day; assay type: in vivo, male Swiss Webster mice; settings: i.p. 10 mg/kg every other day, food ad lib
Text: Food was provided ad lib.
By 27 days both sets of treated mice had lost about 10% of their starting body weight.

PTPN1/PTP1B = target: T1, PTPN1/PTP1B (Homo sapiens, UniProt P18031); test: PTP1B inhibition, fluorescence time-course, 10-dose IC50 (Example 2); assay type: biochemical
T1 construct: The enzyme was the human truncated form (1-321), recombinantly produced in Escherichia coli; host or cells: Escherichia coli
T1 sequence (P18031 1-321): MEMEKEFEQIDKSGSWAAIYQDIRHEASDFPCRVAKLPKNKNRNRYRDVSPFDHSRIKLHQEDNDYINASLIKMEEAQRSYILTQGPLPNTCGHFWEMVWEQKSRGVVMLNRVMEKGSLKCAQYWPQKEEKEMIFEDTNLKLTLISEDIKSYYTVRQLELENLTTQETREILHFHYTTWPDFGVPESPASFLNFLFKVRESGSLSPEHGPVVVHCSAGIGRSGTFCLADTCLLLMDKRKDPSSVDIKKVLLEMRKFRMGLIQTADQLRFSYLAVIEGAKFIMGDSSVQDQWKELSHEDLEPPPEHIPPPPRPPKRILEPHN

stomach tissues = test: Stomach RNA-sequencing, ENT-02 (MSI-1436) treatment and congruence with ENT-03 (Example 10); assay type: in vivo, mice
Experimental: Samples of stomach tissues from the mice were analysed by RNA-sequencing on an Illumina platform.
To achieve these aims, data were subject to a quality control evaluation, differential expression and functional enrichment analyses, as well as a congruence analysis.
[…] At this threshold, differentially expressed genes were identified in all contrasts.
As mentioned previously, for statistical robustness, only those with an adjusted p-value <0.05 should be considered. […]
The amount of overlap is represented in FIGS. 28A-28D. For each comparison, the value in the plot represents the number of intersecting selected genes and the color represents the Jaccard index (the intersection over the union) for the two contrasts under consideration.
Scatter plots, upset plots, venn diagrams, hypergeometric tests and Spearman rank correlation tests were employed to assess the level of overlap as shown in FIGS. 15-27.

[3] = target: Tyrosine-protein phosphatase non-receptor type 11 (Homo sapiens, UniProt Q06124); test: Phosphatase panel, DiFMUP fluorescence assay; assay type: biochemical
Tyrosine-protein phosphatase non-receptor type 11, sequence (Q06124 247-517): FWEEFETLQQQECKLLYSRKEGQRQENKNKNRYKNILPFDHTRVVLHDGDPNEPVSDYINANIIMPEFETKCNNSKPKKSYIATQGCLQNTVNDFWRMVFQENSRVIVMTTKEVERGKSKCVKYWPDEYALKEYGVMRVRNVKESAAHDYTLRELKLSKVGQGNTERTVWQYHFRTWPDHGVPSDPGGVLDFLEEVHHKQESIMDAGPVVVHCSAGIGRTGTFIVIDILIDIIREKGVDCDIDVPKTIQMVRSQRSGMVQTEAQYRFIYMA

PTPN11/SHP2-FL = target: T2, PTPN11/SHP2-FL (Homo sapiens, UniProt Q06124); test: Phosphatase panel, DiFMUP assay with activating peptide
T2 sequence (Q06124 2-597 isoform Q06124-1): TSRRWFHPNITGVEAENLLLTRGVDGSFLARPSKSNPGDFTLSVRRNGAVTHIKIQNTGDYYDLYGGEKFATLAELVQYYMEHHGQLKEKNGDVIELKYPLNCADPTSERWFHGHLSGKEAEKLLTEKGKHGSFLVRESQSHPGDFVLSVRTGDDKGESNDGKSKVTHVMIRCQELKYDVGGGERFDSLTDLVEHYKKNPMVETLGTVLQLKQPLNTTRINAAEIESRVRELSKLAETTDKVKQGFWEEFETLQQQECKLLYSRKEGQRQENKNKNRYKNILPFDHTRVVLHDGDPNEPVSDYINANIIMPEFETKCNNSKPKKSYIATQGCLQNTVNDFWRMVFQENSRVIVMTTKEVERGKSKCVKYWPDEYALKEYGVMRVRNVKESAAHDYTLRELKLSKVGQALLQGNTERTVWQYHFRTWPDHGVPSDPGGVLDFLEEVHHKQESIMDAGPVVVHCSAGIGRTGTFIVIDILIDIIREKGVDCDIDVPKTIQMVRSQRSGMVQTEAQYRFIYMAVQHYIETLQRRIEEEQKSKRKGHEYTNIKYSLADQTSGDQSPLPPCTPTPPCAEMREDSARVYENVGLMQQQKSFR

[4] = Weight loss, i.p. once weekly over 6 weeks (FIG. 1C); assay type: in vivo, C57bl/6 male mice; settings: intraperitoneal once weekly over 6 weeks
hAPP-J20 mice = test: Morris water maze, amyloid Alzheimer's model; assay type: in vivo; settings: 2.5 mg/kg/wk i.p. over 6 weeks, vs vehicle treated littermates
Text: The Morris water maze was used to test the effect of ENT-03 on spatial learning and memory deficits in 2 mouse models of familial Alzheimer's disease, hAPP-J20 mice that express a double mutant of the human amyloid precursor protein (Mucke et al., 2000), and PS19 mice that express the P301S mutant of the human microtubule associated protein tau (Yoshiyama et al., 2007).
hAPP-J20 mice expressing human APP bearing the Swedish and Indiana familial mutations (B6.Cg-Zbtb20Tg(PDGFB-APPSwInd)20Lms/2Mmjax, (Mucke et al., 2000)) and PS19 mice expressing the P301S mutation of human tau protein (B6;C3-Tg(Prnp-MAPT*P301S)PS19Vle/J (Yoshiyama et al., 2007)) were purchased from Jackson laboratories and maintained as colonies in the animal facility of the University of Ottawa. Heterozygous hAPP-J20 and PS19 mice were used. Genotypes were verified by PCR using genomic DNA isolated from tail or ear biopsies. […]
The Morris water maze test to analyze the ability of mice to learn and remember the location of a submerged platform in a pool containing opaque water was conducted in the Faculty of Medicine Behavior Core Laboratory at the University of Ottawa. […] On the probe day, crossings of the platform area and target quadrant were counted and swimming speed was measured using Ethovision automated video tracking software (Noldus).

With `CC(C)[C@@H](CC[C@@H](C)[C@H]1CC[C@H]2[C@@H]3[C@H](O)C[C@H]4C[C@@H](NCCCNCCCCNCCCN)CC[C@]4(C)[C@H]3CC[C@]12C)OS(=O)(=O)O` (single isomer, unassigned) [ENT-02 (MSI-1436), trodusquemine] the “effect on growth / weight gain” value [1] was “suppressed growth as well as having induced consumption of body fat”, the “effect on weight” value [2] was “more severe decline” and the “Slope (signal/min)” value (PTPN1/PTP1B; Conc 1.00E−04 M) was −68 signal/min. For the same compound, the “Slope (signal/min)” value (PTPN1/PTP1B; Conc 1.11E−05 M) was 292 signal/min, the “Slope (signal/min)” value (PTPN1/PTP1B; Conc 1.23E−06 M) was 37260 signal/min and the “Slope (signal/min)” value (PTPN1/PTP1B; Conc 1.37E−07 M) was 40137 signal/min. For the same compound, the “Slope (signal/min)” value (PTPN1/PTP1B; Conc 1.52E−08 M) was 44021 signal/min, the “Slope (signal/min)” value (PTPN1/PTP1B; Conc 3.33E−05 M) was −440 signal/min and the “Slope (signal/min)” value (PTPN1/PTP1B; Conc 3.70E−06 M) was 16431 signal/min. For the same compound, the “Slope (signal/min)” value (PTPN1/PTP1B; Conc 4.12E−07 M) was 39959 signal/min, the “Slope (signal/min)” value (PTPN1/PTP1B; Conc 4.57E−08 M) was 42717 signal/min and the “Slope (signal/min)” value (PTPN1/PTP1B; Conc 5.08E−09 M) was 43513 signal/min. The HILLSLOPE (PTPN1/PTP1B; Table 5A) was −2.19, the “overlap of genes downregulated in aged mice with genes up-regulated by treatment in old mice” value (stomach tissues; hypergeometric P<0.0001) was “overlapped significantly” and the “overlap of genes down-regulated in ageing and up-regulated in treatment with those of ENT-03” value (stomach tissues; stomach, congruence analysis) was “did not overlap with those affected by ENT-03”. The IC50 [3] was 0.375 µM and the IC50 (PTPN11/SHP2-FL) was 0.752 µM.

For `CC(CCC[C@@H](C)[C@H]1CCC2C3C(CC[C@@]21C)[C@@]1(C)CC[C@H](NCCCNCCCCNCCCN)C[C@@H]1C[C@H]3O)C(=O)O` (single isomer, unassigned) [ENT-03], the “effect on growth / weight gain” value [1] was “continued normal growth”, the “effect on weight” value [2] was “weight loss with kinetics similar to that seen following administration of ENT-02” and the “gradual recovery to the starting weight by” value [2] was ~45 days. For the same compound, the “nadir of weight decrease” value [2] was ~16 days, the “starting body weight lost by 27 days” value [2] was “about 10%” and the “clinical appearance other than weight loss” value [4] was “appeared clinically normal”. The “effect on weight” value [4] was “dose dependent weight loss”, the “learning during the training phase (latency to find the hidden platform)” value (hAPP-J20 mice) was “improved; also recorded: decreased the latency to find the hidden platform” and the “memory on the probe day (platform area crossings, time in platform area)” value (hAPP-J20 mice) was “improved memory”. For the same compound, the IC50 [3] was 5 µM and the IC50 (PTPN11/SHP2-FL) was 1.42 µM.

With `CC(CCC[C@@H](C)[C@H]1CCC2C3C(CC(O)[C@@]21C)[C@@]1(C)CC[C@H](NCCCNCCCCN)C[C@@H]1C[C@H]3O)C(=O)O` (single isomer, unassigned) [ENT-05] the IC50 (PTPN11/SHP2-FL) was 0.976 µM.

In the case of `CC(CCC[C@@H](C)[C@H]1CCC2C3C(CC[C@@]21C)[C@@]1(C)CC[C@H](NCCCNCCCCN)C[C@@H]1C[C@H]3O)C(=O)O` (single isomer, unassigned) [ENT-06], the IC50 (PTPN11/SHP2-FL) is reported as 3.17 µM.
